We go through eight compounds from PubChem BioAssay (NCI).

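These data come from cells grown in 96-well plates and exposed to compound for 48 hours at five concentrations. GI50 = concentration required for 50% inhibition of growth. TGI: total growth inhibition.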

Among the test systems are HCT-15 colon; TK-10 renal; RPMI-8226 leukemia; UACC-257 melanoma; HCT-116 colon; SF-295 CNS; NCI-H522 lung; DU-145 prostate; IGROV1 ovarian; K-562 leukemia.
What all share (assay): inhibition of tumour cell growth, NCI panel, 48 h

For `C=[CH][Sn]([CH]=C)([O]c1cccc2cccnc12)[O]c1cccc2cccnc12`, the GI50 was 2.36 µM in the assay on HCT-15 colon; 9.46 µM in the assay on TK-10 renal; 0.877 µM in the assay on RPMI-8226 leukemia; 2.36 µM in the assay on UACC-257 melanoma; 1.12 µM in the assay on HCT-116 colon; 5.27 µM in the assay on SF-295 CNS. Besides, the GI50 in the assay on NCI-H522 lung was 0.93 µM; with DU-145 prostate, 7.29 µM; in the assay on IGROV1 ovarian it was 3.31 µM; in the assay with K-562 leukemia, 2.73 µM. The TGI in the assay on HCT-15 colon stood at 6.4 µM; in the assay with TK-10 renal it was 29.4 µM; with RPMI-8226 leukemia it was 4.71 µM; in the assay with UACC-257 melanoma, 7.66 µM; with HCT-116 colon it was 2.46 µM; in the assay on SF-295 CNS it was 19.4 µM. The TGI with NCI-H522 lung is 3.36 µM; with DU-145 prostate, 23.2 µM; in the assay with IGROV1 ovarian it was 11 µM; in the assay on K-562 leukemia, above 24.9 µM.

For the compound `CC1CCC2N(C1)CC1C3(O)CC45OC6(O)C(O)CCC4(C)C6CCC5C3(O)CC(O)C1(O)C2(C)O` (stereo not given), the TGI in the assay on HCT-15 colon, with TK-10 renal, in the assay with RPMI-8226 leukemia, in the assay with UACC-257 melanoma, in the assay with HCT-116 colon and with SF-295 CNS was above 100 µM in each case. In addition, the TGI with NCI-H522 lung, with DU-145 prostate, in the assay with IGROV1 ovarian and with K-562 leukemia was above 100 µM throughout.

For `COc1cccc(C2NC(=S)NC(C)=C2C(=O)Nc2ccc(Cl)c(Cl)c2)c1` (stereo not given), the GI50 in the assay with HCT-15 colon was 8.57 µM; in the assay on TK-10 renal it was 12.8 µM; with RPMI-8226 leukemia, 21 µM; in the assay on UACC-257 melanoma, 12.4 µM; in the assay on HCT-116 colon it was 8.47 µM; in the assay with SF-295 CNS, 9.72 µM. In addition, the GI50 is 18.3 µM in the assay with NCI-H522 lung, 0.00711 µM in the assay on DU-145 prostate, 11.3 µM in the assay with IGROV1 ovarian and 16.3 µM in the assay on K-562 leukemia. The TGI is 22.6 µM in the assay on HCT-15 colon; 28.6 µM with TK-10 renal; above 50 µM with RPMI-8226 leukemia; 28.9 µM in the assay with UACC-257 melanoma; 15.9 µM in the assay on HCT-116 colon; 21.6 µM in the assay with SF-295 CNS. Besides, the TGI is above 50 µM with NCI-H522 lung, 12 µM with DU-145 prostate, 28.5 µM in the assay with IGROV1 ovarian and above 50 µM with K-562 leukemia.

Turning to `O=C(NCCCCCCCNC(=O)OCc1ccc2c(Cl)cc(Cl)c(O)c2n1)OCc1ccc2c(Cl)cc(Cl)c(O)c2n1`, the GI50 with HCT-15 colon is 0.221 µM; in the assay with TK-10 renal, 1.4 µM; in the assay with RPMI-8226 leukemia it was 0.247 µM; in the assay with UACC-257 melanoma it was 1.21 µM; in the assay with HCT-116 colon it was 0.241 µM; with SF-295 CNS it was 1.73 µM. In addition, the GI50 was 0.303 µM with NCI-H522 lung, 0.672 µM in the assay on DU-145 prostate, 0.561 µM with IGROV1 ovarian and 0.319 µM with K-562 leukemia. The TGI with HCT-15 colon is 0.542 µM; with TK-10 renal, 2.73 µM; with RPMI-8226 leukemia it was 0.735 µM; in the assay with UACC-257 melanoma, 2.6 µM; in the assay with HCT-116 colon, 0.63 µM; in the assay with SF-295 CNS, 3.41 µM. Also, the TGI in the assay with NCI-H522 lung amounted to 1.15 µM; with DU-145 prostate it was 1.99 µM; with IGROV1 ovarian, 1.41 µM; with K-562 leukemia it was 4.41 µM.

Consider `O=c1c2ccccc2oc2ccc(OCCCCCCN3CCCCCC3)cc12`, for which the GI50 with HCT-15 colon is 2.09 µM; in the assay with TK-10 renal, 3.94 µM; in the assay with RPMI-8226 leukemia, 2.24 µM; in the assay with UACC-257 melanoma, 2.52 µM; in the assay with HCT-116 colon it was 2.13 µM; with SF-295 CNS, 2.16 µM. Besides, the GI50 with NCI-H522 lung was 2.82 µM; in the assay on DU-145 prostate it was 5.89 µM; in the assay with IGROV1 ovarian, 4.29 µM; in the assay with K-562 leukemia it was 1.96 µM. Further, the TGI in the assay with HCT-15 colon worked out at 11.1 µM; with TK-10 renal, 17.3 µM; in the assay with RPMI-8226 leukemia, 5.78 µM; with UACC-257 melanoma it was 5.28 µM; with HCT-116 colon it was 5.16 µM; in the assay on SF-295 CNS, 5.87 µM. The TGI with NCI-H522 lung came to 11.5 µM; in the assay with DU-145 prostate it was 19 µM; with IGROV1 ovarian it was 17.5 µM; in the assay with K-562 leukemia, 4.6 µM.

In the case of `CN(C=O)/C=C/c1cc(O)ccc1O`, the TGI with HCT-15 colon is 65.8 µM; in the assay on TK-10 renal it was 54.1 µM; in the assay on RPMI-8226 leukemia, 75.6 µM; with UACC-257 melanoma, 52.7 µM; in the assay with HCT-116 colon, 48.9 µM; in the assay on SF-295 CNS, 47.7 µM. Further, the TGI was 9.37 µM in the assay on NCI-H522 lung, above 100 µM in the assay with DU-145 prostate, above 71.4 µM in the assay with IGROV1 ovarian and 62.1 µM in the assay with K-562 leukemia.

For the compound `CCOP(=O)(Nc1ccc2oc(=O)c3ccccc3c2c1)OCC`, the TGI in the assay with HCT-15 colon is above 100 µM; in the assay on TK-10 renal it was above 100 µM; in the assay with RPMI-8226 leukemia it was 98.2 µM; with UACC-257 melanoma, above 100 µM; with HCT-116 colon it was above 100 µM; with SF-295 CNS, above 100 µM. The TGI in the assay with NCI-H522 lung, in the assay with DU-145 prostate, with IGROV1 ovarian and with K-562 leukemia was above 100 µM in each case.

`O=C1CN(/N=C/c2ccc(-c3ccc(F)cc3)o2)C(=O)N1`: the TGI in the assay on HCT-15 colon, with TK-10 renal, in the assay with RPMI-8226 leukemia, in the assay on UACC-257 melanoma, in the assay on HCT-116 colon and with SF-295 CNS was above 100 µM in each case. Moreover, the TGI in the assay with NCI-H522 lung was 85 µM; in the assay on DU-145 prostate, above 100 µM; in the assay on IGROV1 ovarian, above 100 µM; in the assay on K-562 leukemia, above 100 µM.
